Data reported in paper PMC3879379, “Gold(III)-Dithiocarbamato Peptidomimetics in the Forefront of the Targeted Anticancer Therapy: Preclinical Studies against Human Breast Neoplasia” (PLoS ONE, 2014).
Where two headings read alike, the source gives them in different places.

Key:
[1] = biological target: T1, Purified human 20S proteasome (Homo sapiens, UniProt P28072+P28074+Q99436); assay: Proteasome activity assay on purified 20S proteasome (fluorogenic substrates); assay type: biochemical; conditions: 2 h incubation
T1 construct: purchased Boston Biochem (Boston, MA)
Experimental: Purified human 20S proteasome (0.5 nM) was incubated in triplicate with three different proteasomal fluorogenic substrates (20 µM) and each compound (dissolved in DMSO) at various concentrations ranging from 0.1 to 10 µM (or an equivalent volume of solvent DMSO as a control) in 100 µL of assay buffer [20 mM Tris-HCl (pH 7.5)].

[2] = biological target: T2, proteasome of MDA-MB-231 cell extract (Homo sapiens, UniProt P28072+P28074+Q99436); assay: Proteasome activity assay on MDA-MB-231 whole-cell extract; assay type: biochemical; conditions: 2 h incubation
T2 construct: endogenous in cells; host or cells: MDA-MB-231 whole-cell extract
T2 sequence (P28074 60-263): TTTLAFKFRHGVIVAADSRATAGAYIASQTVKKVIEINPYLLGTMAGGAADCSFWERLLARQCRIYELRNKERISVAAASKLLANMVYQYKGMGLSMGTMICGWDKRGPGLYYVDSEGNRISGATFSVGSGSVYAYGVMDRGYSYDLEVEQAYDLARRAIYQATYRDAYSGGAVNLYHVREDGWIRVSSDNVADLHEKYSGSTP
T2 sequence (P28072 1-239): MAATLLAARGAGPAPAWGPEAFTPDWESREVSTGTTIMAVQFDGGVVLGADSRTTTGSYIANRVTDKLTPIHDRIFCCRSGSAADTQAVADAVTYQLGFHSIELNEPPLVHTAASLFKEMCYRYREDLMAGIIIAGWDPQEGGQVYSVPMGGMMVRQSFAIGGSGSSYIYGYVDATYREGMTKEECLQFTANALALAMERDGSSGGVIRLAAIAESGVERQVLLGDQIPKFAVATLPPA
T2 sequence (Q99436 44-277): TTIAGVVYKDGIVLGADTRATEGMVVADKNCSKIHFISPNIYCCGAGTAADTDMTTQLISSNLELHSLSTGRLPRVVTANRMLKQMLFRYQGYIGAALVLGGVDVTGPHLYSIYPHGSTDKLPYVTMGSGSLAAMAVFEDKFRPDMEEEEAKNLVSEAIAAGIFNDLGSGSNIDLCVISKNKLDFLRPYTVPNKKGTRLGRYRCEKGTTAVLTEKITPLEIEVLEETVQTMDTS
Experimental: Likewise, MDA-MB-231 whole-cell extract (10 µg/well) was incubated in quadruplicate with each complex and each fluorogenic substrate in 100 µL of assay buffer [20 mM Tris-HCl (pH 7.5)]. Fluorescence data were acquired after 1 hour and 2 hours incubation at 37°C. The whole-cell extract was prepared as described elsewhere.

[3] = tested on: MDA-MB-231 cells; assay: Cellular morphology (phase contrast imaging); assay type: cell-based, human; conditions: MDA-MB-231, 24 h
Text: A Zeiss (Thornwood, NY) Axiovert 25 microscope was used for cellular morphology microscopic imaging with phase contrast.

[4] = tested on: MDA-MB-231 xenografts; assay: Immunohistochemical p27 and TUNEL staining of tumor samples; assay type: in vivo, female athymic nude mice; conditions: xenograft tumors, 1 mg kg^−1 d^−1
Experimental: IHC was performed using a previously reported protocol. Briefly, tumor samples were paraffin-embedded by the Pathology Core at Karmanos Cancer Institute (Detroit, MI, USA). Samples were then cut and stained for p27 or TUNEL by the BioBank at William Beaumont Hospital (Royal Oak, MI, USA). Anti-p27 (VP-P951) was from Vector Laboratories (Burlingame, CA, USA) and was used at a 1∶30 dilution followed by detection by DAKO. Samples were counterstained with DAB/Hematoxylin. TUNEL staining was performed using anti-digoxigenin and peroxidase substrate, followed by counterstaining with methyl green. In both cases, brown colored cells were considered positive.

[5] = biological target: T3, proteasomal CT-like activity (Homo sapiens, UniProt P28074); assay: Proteasomal CT-like activity in xenograft tumor tissue; assay type: in vivo, female athymic nude mice; conditions: xenograft tumors, 1 mg kg^−1 d^−1, after 27 days of treatment
T3 construct: from tissue; host or cells: MDA-MB-231 xenograft tumour tissue from female athymic nude mice
T3 sequence (P28074 60-263): T2 sequence (P28074 60-263)
Experimental: (§1) Seven-week-old female athymic nude mice were purchased from Harlan Laboratories (Indianapolis, USA) and housed in accordance with protocols approved by the Institutional Laboratory Animal Care and Use Committee of Wayne State University. Human breast cancer MDA-MB-231 cells suspended in 0.1 mL of serum-free DMEM/F12 cell growth medium were inoculated subcutaneously (s.c.) into the right flank of each mouse. When tumors reached a volume of around 115 mm^3, the mice were randomly allocated into three groups (seven mice per group) and treated five days a week by s.c. injection of either vehicle [1∶1∶1 v/v PBS, DMSO, Cremophore/ethanol (1∶4)] or medium containing 1.0 mg/kg of AuD6 or AuD8. Tumor length (L) and width (W) were measured every other day using a caliper, and tumor volumes were evaluated according to the standard formula (π ⋅ L ⋅ W^2)/6. Mouse weights were monitored weekly. Four mice per group were sacrificed after 27 days of treatment, or when tumors reached ∼1,800 mm^3, and the remaining three mice per group were sacrificed after 13 days to observe any early effects of treatments. The tumors were collected and weighed. Tumor tissues were used to measure proteasome inhibition and caspase-3 activation by enzymatic activity assays and by Western blot analysis.

[6] = tested on: MDA-MB-231 cells; assay: MTT cell proliferation assay; assay type: cell-based, human; conditions: for IC50: read-out: IC50 (MTT, inhibition of cell proliferation)
Experimental: Human breast cancer MDA-MB-231 cells were obtained from American Type Culture Collection (Manassas, VA) and grown in DMEM/F12 supplemented with 10% fetal bovine serum, 1 mM sodium pyruvate, 10 mM HEPES, 100 U/mL penicillin and 100 µg/mL streptomycin. Cells were grown in a humidified incubator with 5% CO2 at 37°C. Cells were seeded in octuplicate in 96-well plates and grown to 70%–80% confluence, followed by treatment with DMSO (control) or each compound (dissolved in DMSO) in fresh medium at the indicated concentrations. After 24 or 72 hours incubation at 37°C, inhibition of cell proliferation was measured by MTT assay, as previously described. The cytotoxicity of the compounds was quantified as the percentage of cells surviving relative to untreated cells. Four MTT tests for each compound were performed in order to evaluate the corresponding IC50 values.

[7] = tested on: MDA-MB-231 cells; assay: Annexin-V FITC/PI apoptosis assay (flow cytometry); assay type: cell-based, human; conditions: MDA-MB-231, 20 µM; for cells in early stage apoptosis: 16 or 24 h (time not specified)
Experimental: Apoptosis indexes were measured using the Annexin-V fluorescein isothiocyanate (FITC) apoptosis detection kit I from by BD Pharmingen. MDA-MB-231 cells were grown to around 75% confluence, treated with gold-based complexes (20 µM) or solvent as a control for 16 or 24 h, harvested by means of a scraper and centrifugation. Cell pellets were washed twice with ice cold PBS and cells were then resuspended in 1× binding buffer at a concentration of 1•10^6 cells/mL. 100 µL of the suspension was then transferred to a 5 mL flow cytometry tube and 5 µL FITC Annexin V and 5 µL PI for double stained samples (either 5 µL of FITC Annexin V or 5 µL of PI for controls) were added. Mixtures were gently vortexed and incubated for 15 min at RT in the dark followed by addition of 400 µL 1× binding buffer to each tube. Then, analysis by flow cytometry occurred within 1 h at the Microscopy, Imaging and Cytometry Resources (MICR) Core at the Karmanos Cancer Institute, Wayne State University. Data (Figure 3) are presented as density plots of Annexin-V (x-axis) and propidium iodide (PI, y-axis) stainings. Unstained cells, cells stained with either PI or FITC Annexin-V only, and untreated cells stained with both PI and Annexin-V were used to set up compensation and quadrants. The excitation wavelength was 488 nm and the detection wavelengths were 530±15 and 620±21 nm for Annexin V and PI, respectively. Cells staining negative for both markers were considered viable since Annexin V and PI are both cell membrane impermeable while cells staining positive for both markers were considered in late apoptosis. Cells staining positive for Annexin only were considered in early apoptosis whereas cells staining positive for PI only were considered dead by a necrotic pathway. Percentages of viable, apoptotic, and necrotic cells are reported in the corner of each quadrant (Figure 3).

[8] = tested on: MDA-MB-231 cells; assay: MTT assay with ROS scavenger Trolox (pretreatment or co-treatment); assay type: cell-based, human; conditions: for reduction of IC50 by co-treatment with Trolox: MDA-MB-231, 24 h co-treatment with Trolox 100 µM
Experimental: In order to investigate whether cell death is affected by free radicals produced in situ by our compounds, cells were seeded in quadruplicate and treated with both complexes and Trolox. We first pretreated cells for 1 h with Trolox at 100 µM and after changing medium, treated cells with compounds and incubated for an additional 24 h. Alternatively, we co-treated cells for 24 h with both compounds and Trolox (100 µM), followed by MTT assay.

[9] = tested on: p27; assay: Western blot of p27 in treated cells; assay type: cell-based, human; conditions: MDA-MB-231, 24 h
Experimental: MDA-MB-231 cells were grown to around 75% confluence, treated with gold-based complexes or solvent as a control, harvested, and lysed. Cell lysates (30 µg/lane) were separated by SDS-PAGE and transferred to a nitrocellulose membrane. After blocking of non-specific binding (5% non-fat dry milk in Tris-Buffered Saline with Tween 20-TBST), membranes were incubated overnight at 4°C with primary antibodies, followed by washing with TBST and incubation for 2 h with secondary antibodies. Bands of interest were visualized using HyGLO Chemiluminescent HRP Antibody detection reagent, HyBlot Chemiluminescence films (Denville Scientific Inc.; Metuchen, NJ) and a HOPE Micro-MAX film processor.

[10] = tested on: MDA-MB-231 xenografts; assay: Human breast tumor xenograft growth; assay type: in vivo, female athymic nude mice; conditions: 1.0 mg kg^−1 d^−1 s.c.
Experimental: as §1, with “analysis. […]” for “analysis.”

[11] = read-out: IC50 Chymotrypsin-like activity
[12] = read-out: IC50 PGPH-like activity
[13] = read-out: IC50 Trypsin-like activity

Compound | IC50 [1, 11] [µM] | IC50 [1, 12] [µM] | IC50 [1, 13] [µM] | IC50 [2, 11] [µM] | IC50 [2, 12] [µM] | IC50 [2, 13] [µM] | concentration at which apoptotic morphological changes were observed [3] [µM] | TUNEL positive (staining of tumor) [4] [%] | p27 positive (immunohistochemical staining of tumor) [4] [%] | inhibition of the proteasomal CT-like pocket in tumor tissue [5] [%] | cells in early stage apoptosis [7] | apoptotic cells at late stage (upper right quadrant) ([7]; 24 h) [%] | reduction of IC50 by co-treatment with Trolox [8] | also measured
C[N+](CC(=O)NCC(=O)OC(C)(C)C)=C1[S][Au-]([Br])([Br])[S]1 [AuD6, [Au^IIIBr2(dtc-Sar-AA-O(t-Bu))]] | 0.42 ± 0.03 | 0.49 ± 0.09 | 0.51 ± 0.07 | 3.3 ± 0.4 | 2.3 ± 0.8 | 3 ± 0.9 | 20 | ~75 | ~20 | 14 | 7–9% | 49 | approximately 3 fold | IC50 ([6]; MDA-MB-231, 72 h treatment): 13 ± 1 µM
C[N+](CC(=O)NC(C)(C)C(=O)OC(C)(C)C)=C1[S][Au-]([Br])([Br])[S]1 [AuD8, [Au^IIIBr2(dtc-Sar-AA-O(t-Bu))]] | 0.29 ± 0.07 | 0.54 ± 0.08 | 0.61 ± 0.02 | 2.9 ± 0.6 | 4.5 ± 0.9 | 5.7 ± 0.1 | 10 | ~30 | ~95 | 33 | 7–9% | 74.1 | very little effect | concentration inducing p27 accumulation [9]: below 1 µM; apoptotic cells at late stage (upper right quadrant) ([7]; 16 h): 62.9%; inhibition of tumor growth compared to control ([10]; 27 days, p<0.05): 53%; tumor volume at end of treatment ([10]; day 27): 849±79 mm^3
Cc1c(C)c2c(c(C)c1O)CCC(C)(C(=O)O)O2 (centres unmarked) [Trolox, reference compound] |  |  |  |  |  |  |  |  |  |  |  |  |  | inhibition at 100 µM ([8]; Homo sapiens, MDA-MB-231, Trolox 100 µM, 24 h treatment, read-out: inhibition of tumor cell growth by Trolox alone): ~25%
N.N.[Cl][Pt][Cl] [cisplatin, cis-diammineplatinum(II) dichloride] |  |  |  |  |  |  |  |  |  |  |  |  |  | growth-inhibitory effect ([6]; MDA-MB-231, 100 µM, 24 h treatment): around 40%; IC50 (MTT, inhibition of cell proliferation) ([6]; MDA-MB-231, 24 h treatment): not reached; IC50 ([6]; MDA-MB-231, 24 h treatment): > 100 µM
